Experimental findings from ChEMBL document CHEMBL4152220, “Discovery of new benzensulfonamide derivatives as tripedal STAT3 inhibitors” (Eur J Med Chem, 2018) are described below.

The structures appear in SMILES notation. Activity calls are given as the source filed them. No cut-off for these calls is given here.

For data set [1], the target named is Signal transducer and activator of transcription 3 (Homo sapiens) (UniProt P40763). The data set can be described thus: Inhibition of STAT3 phosphorylation at Y705 residue in human HCT116 cells after 20 hrs by Western blot analysis. It counts as cell-based. (In general: In western blotting, separated proteins are transferred to a membrane and probed.)
Data set [2] has the same target. The data set can be described thus: Inhibition of STAT3 dimerization in human HCT116 cells assessed as inhibition of STAT3-STAT3 DNA binding activity at 4 to 12 uM incubated for 20 hrs by EMSA. In kind it is cell-based. For orientation: In EMSA bound probe runs differently from free probe, usually more slowly.
The target of data set [3] is T1, Signal transducer and activator of transcription 1-alpha/beta (Homo sapiens) (UniProt P42224).
T1 sequence (whole entry): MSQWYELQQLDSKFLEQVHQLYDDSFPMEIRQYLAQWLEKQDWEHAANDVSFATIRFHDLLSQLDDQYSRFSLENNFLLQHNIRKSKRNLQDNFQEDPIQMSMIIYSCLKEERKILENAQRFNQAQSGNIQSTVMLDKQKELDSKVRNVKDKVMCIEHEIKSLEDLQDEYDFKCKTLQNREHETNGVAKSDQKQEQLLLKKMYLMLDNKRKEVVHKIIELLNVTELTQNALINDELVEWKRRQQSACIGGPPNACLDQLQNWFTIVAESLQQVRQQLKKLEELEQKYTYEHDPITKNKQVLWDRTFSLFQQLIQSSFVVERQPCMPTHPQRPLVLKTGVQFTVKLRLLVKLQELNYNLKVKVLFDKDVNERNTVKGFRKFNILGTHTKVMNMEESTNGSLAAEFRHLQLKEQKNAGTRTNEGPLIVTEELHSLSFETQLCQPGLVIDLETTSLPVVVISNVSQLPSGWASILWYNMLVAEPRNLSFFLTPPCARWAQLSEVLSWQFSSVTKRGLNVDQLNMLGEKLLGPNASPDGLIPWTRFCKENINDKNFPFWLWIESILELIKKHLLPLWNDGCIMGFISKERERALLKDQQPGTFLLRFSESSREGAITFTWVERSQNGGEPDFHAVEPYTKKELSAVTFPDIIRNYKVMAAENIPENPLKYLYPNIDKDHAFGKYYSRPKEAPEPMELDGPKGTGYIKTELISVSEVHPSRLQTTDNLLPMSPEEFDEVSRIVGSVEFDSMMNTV
The data set can be described thus: Inhibition of STAT1 phosphorylation at Y701 residue in human HCT116 cells at 4 to 12 uM after 20 hrs by Western blot analysis. It counts as cell-based.

Data set [4] has as its target T2, Signal transducer and activator of transcription 5A (Homo sapiens) (UniProt P42229).
T2 sequence (whole entry): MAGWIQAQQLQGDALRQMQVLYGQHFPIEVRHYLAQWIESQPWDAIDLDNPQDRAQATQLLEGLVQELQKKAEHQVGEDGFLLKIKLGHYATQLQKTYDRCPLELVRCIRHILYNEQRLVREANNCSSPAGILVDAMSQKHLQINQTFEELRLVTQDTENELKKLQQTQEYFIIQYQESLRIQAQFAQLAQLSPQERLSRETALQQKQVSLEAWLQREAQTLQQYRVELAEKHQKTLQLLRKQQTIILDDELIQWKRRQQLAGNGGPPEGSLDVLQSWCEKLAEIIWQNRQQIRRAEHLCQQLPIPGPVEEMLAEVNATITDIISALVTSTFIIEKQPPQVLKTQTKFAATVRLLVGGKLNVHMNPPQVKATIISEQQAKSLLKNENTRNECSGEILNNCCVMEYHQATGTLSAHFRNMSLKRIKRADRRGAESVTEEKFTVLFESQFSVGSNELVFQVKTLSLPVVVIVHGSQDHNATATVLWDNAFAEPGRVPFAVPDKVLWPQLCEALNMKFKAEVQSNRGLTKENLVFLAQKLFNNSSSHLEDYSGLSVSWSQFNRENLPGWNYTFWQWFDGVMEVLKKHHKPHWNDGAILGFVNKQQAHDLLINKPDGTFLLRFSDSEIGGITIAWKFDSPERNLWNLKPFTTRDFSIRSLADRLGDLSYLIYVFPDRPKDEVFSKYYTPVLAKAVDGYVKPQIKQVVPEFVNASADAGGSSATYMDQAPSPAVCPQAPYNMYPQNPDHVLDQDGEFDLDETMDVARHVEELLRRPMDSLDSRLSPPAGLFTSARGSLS
The data set can be described thus: Inhibition of STAT5 phosphorylation at Y694 residue in human HCT116 cells at 4 to 12 uM after 20 hrs by Western blot analysis. In kind it is cell-based.

The target in data set [5] is T1, Signal transducer and activator of transcription 1-alpha/beta (Homo sapiens). The experiment in a line: Inhibition of STAT1 phosphorylation at Y701 residue in human HCT116 cells at 10 uM after 20 hrs by Western blot analysis. It counts as cell-based.
In data set [6] the test system is HCT-116. The data set can be described thus: Induction of apoptosis in human HCT116 cells assessed as late apoptotic cells at 8 uM after 20 hrs by Annexin V-APC/7-AAD staining-based flow cytometric analysis (reference value: 0.0%). In kind it is functional. On the technique in general: A flow cytometer gives signals particle by particle.
The subject of data set [7] is HCT-116. The experiment in a line: Induction of apoptosis in human HCT116 cells assessed as viable cells at 4 uM after 20 hrs by Annexin V-APC/7-AAD staining-based flow cytometric analysis (reference value: 96.8%). The note with it: HCT-116, 20 h, read-out: Activity. It counts as functional.
The subject of data set [8] is HCT-116. The data set can be described thus: Induction of apoptosis in human HCT116 cells assessed as viable cells at 8 uM after 20 hrs by Annexin V-APC/7-AAD staining-based flow cytometric analysis (reference value: 96.8%). The note with it: HCT-116, 20 h, read-out: Activity. In kind it is functional.
The subject of data set [9] is HCT-116. The data set can be described thus: Induction of apoptosis in human HCT116 cells assessed as early apoptotic cells at 12 uM after 20 hrs by Annexin V-APC/7-AAD staining-based flow cytometric analysis (reference value: 3.1%). In kind it is functional.
Data set [10] concerns HCT-116. The data set can be described thus: Induction of apoptosis in human HCT116 cells after 20 hrs by Annexin V-APC/7-AAD staining-based flow cytometric analysis. In kind it is functional, cell-based.
Data set [11] concerns HCT-116. The data set can be described thus: Induction of apoptosis in human HCT116 cells assessed as increase in cleaved caspase7 level after 20 hrs by Western blot analysis. In kind it is functional, cell-based.
Data set [12] deals with HCT-116. The experiment in a line: Antitumor activity against human HCT116 cells xenografted in nude mouse assessed as decrease in tumor weight at 10 mg/kg, ip dosed daily for 15 days relative to untreated control. In kind it is functional. Details: scale not given: the % may be the effect or the level left.
Data set [13] concerns HCT-116. The experiment in a line: Antitumor activity against human HCT116 cells xenografted in nude mouse assessed as decrease in tumor weight at 20 mg/kg, ip dosed daily for 15 days relative to untreated control. In kind it is functional. Also on record: scale not given: the % may be the effect or the level left.
For data set [14], the system named is HCT-116. The experiment in a line: Antitumor activity against human HCT116 cells xenografted in nude mouse assessed as decrease in tumor volume at 10 mg/kg, ip dosed daily for 15 days relative to untreated control. Also on record: scale not given: the % may be the effect or the level left. In kind it is functional.
Data set [15] deals with HCT-116. The data set can be described thus: Antitumor activity against human HCT116 cells xenografted in nude mouse assessed as decrease in tumor volume at 20 mg/kg, ip dosed daily for 15 days relative to untreated control. In kind it is functional. Also on record: scale not given: the % may be the effect or the level left.
For data set [16], the system named is Mus musculus. The data set can be described thus: Toxicity in nude mouse xenografted with human HCT116 cells assessed as change in body weight at 10 to 20 mg/kg, ip dosed daily for 15 days. It counts as organism-based. As to conditions: in vivo, 360 h.
Data set [17] relates to Mus musculus. The data set can be described thus: Toxicity in ICR mouse assessed as abnormal behavior at 10 to 80 mg/kg, ip measured up to 2 weeks post treatment. It counts as organism-based. As to conditions: in vivo, 336 h.
In data set [18] the test system is Mus musculus. The data set can be described thus: Toxicity in ICR mouse assessed as mortality at 10 to 80 mg/kg, ip measured up to 2 weeks post treatment. In kind it is organism-based. As to conditions: in vivo, 336 h.

Sequence of Signal transducer and activator of transcription 3 (Homo sapiens) (P40763 whole entry): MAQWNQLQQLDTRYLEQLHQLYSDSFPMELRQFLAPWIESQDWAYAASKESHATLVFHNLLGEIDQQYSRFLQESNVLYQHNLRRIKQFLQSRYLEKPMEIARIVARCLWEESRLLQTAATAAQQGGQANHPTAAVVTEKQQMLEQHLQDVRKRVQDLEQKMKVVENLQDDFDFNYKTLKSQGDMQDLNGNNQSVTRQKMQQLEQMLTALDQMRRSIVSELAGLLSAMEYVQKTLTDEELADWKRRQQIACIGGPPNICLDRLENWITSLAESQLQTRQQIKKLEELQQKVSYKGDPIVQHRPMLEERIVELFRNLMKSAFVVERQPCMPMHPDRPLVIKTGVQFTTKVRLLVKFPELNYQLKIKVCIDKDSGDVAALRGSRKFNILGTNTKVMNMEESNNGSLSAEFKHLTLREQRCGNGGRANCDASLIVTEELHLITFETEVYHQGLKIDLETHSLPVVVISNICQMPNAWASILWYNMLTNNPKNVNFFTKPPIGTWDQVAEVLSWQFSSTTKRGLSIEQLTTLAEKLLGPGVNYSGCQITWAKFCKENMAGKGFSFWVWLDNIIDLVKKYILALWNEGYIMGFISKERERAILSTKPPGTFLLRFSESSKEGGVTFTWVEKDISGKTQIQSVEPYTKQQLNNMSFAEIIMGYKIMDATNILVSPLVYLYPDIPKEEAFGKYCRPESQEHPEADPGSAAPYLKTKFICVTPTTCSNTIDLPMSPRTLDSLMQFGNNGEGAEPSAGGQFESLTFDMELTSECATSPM

On to `CC(C)c1ccc(CN(Cc2c(F)c(F)c(F)c(F)c2F)c2cccc(S(N)(=O)=O)c2)cc1`, for which the inhibition entry in data set [1] was “Dose-dependent effect”. For the same compound, the inhibition entry in data set [2] is “Active”. The inhibition entry in data set [3], in data set [4] and in data set [5] was “inactive” throughout. The Activity is 0.2% in the data set on HCT-116 [6]; 21.9% in the data set with HCT-116 [9]; “Dose-dependent effect” in the data set with HCT-116 [10]; “Dose-dependent effect” in the data set with HCT-116 [11]; 41.3% in the data set with HCT-116 [12]; 56.84% in the data set on HCT-116 [13]. Besides, the Activity is 35.69% in the data set on HCT-116 [14]; 58.12% in the data set on HCT-116 [15]; “Non-Toxic” in the data set on Mus musculus [16]; “Non-Toxic” in the data set with Mus musculus [17]; “Non-Toxic” in the data set on Mus musculus [18]. For the same compound, the viability at 4 µM with HCT-116 [7] turned out to be 92.8%. The viability at 8 µM in the data set on HCT-116 [8] came out at 89.6%.
